Laboratory results taken from article PMC7327383, “The affinity and selectivity of α‐adrenoceptor antagonists, antidepressants, and antipsychotics for the human α1A, α1B, and α1D‐adrenoceptors” (Pharmacology Research & Perspectives, 2020).
pKd: −log10 of the molar value. Blank lines part the entries; values can stand above or below the molecule they belong to.

Key:
human α1B-adrenoceptor = target: T1, human α1B-adrenoceptor (Homo sapiens, UniProt P35368); experiment: [3H]prazosin whole-cell competition binding, CHO-α1B cells; conditions: for selectivity α1B vs α1D: ratio, 1 = no selectivity for a subtype over another; for Selectivity ratio α1B vs α1D: ratio of KD values, higher α1B affinity, 1.0 under vs = none; for Kd / Log KD α1B: single-component inhibition curve, given as log KD (negative), mean ± SE mean; for Kd: read-out: Log KD α1B (converted)
T1 construct: CHO cells stably expressing either the full‐length human α1A, α1B, or α1D‐adrenoceptor
T1 sequence (P35368 1-520): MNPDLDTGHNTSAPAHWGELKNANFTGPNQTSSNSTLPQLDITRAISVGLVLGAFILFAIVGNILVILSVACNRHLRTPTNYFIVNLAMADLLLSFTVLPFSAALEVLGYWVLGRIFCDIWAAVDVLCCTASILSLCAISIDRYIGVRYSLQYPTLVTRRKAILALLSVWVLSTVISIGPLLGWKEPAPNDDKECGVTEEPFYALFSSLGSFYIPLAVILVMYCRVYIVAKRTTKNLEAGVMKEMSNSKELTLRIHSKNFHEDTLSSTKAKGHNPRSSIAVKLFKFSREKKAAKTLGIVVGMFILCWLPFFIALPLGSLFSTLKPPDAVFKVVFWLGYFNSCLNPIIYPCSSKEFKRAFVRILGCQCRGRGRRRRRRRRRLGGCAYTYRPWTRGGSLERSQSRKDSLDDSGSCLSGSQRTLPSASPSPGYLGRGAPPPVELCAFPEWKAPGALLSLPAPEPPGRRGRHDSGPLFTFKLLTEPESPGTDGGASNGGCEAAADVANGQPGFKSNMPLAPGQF

human α1A-adrenoceptor = target: T2, human α1A-adrenoceptor (Homo sapiens, UniProt P35348); experiment: [3H]prazosin whole-cell competition binding, CHO-α1A cells; conditions: for Selectivity ratio α1A vs α1D / Selectivity ratio α1A vs α1B: ratio of KD values, 1.0 under vs = none; for Selectivity ratio α1A vs α1D: higher α1A affinity; for Selectivity ratio α1A vs α1B: printed under α1A = higher α1A affinity; for Kd: read-out: Log KD α1A (converted)
T2 construct: CHO cells stably expressing either the full‐length human α1A, α1B, or α1D‐adrenoceptor
T2 sequence (P35348 1-466): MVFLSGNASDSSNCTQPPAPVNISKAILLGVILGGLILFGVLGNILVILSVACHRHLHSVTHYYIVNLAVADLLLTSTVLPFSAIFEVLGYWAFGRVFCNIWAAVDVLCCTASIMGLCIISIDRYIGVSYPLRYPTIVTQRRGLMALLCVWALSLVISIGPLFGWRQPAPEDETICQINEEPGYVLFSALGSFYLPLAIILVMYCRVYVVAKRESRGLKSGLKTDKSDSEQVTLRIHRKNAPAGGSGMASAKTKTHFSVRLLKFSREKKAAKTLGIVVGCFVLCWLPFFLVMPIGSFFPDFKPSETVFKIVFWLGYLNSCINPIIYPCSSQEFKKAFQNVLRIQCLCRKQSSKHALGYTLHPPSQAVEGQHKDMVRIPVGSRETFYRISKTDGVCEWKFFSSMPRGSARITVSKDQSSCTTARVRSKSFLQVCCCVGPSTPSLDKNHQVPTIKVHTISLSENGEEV

[1] = target: T3, full-length human α1D-adrenoceptor (Homo sapiens, UniProt P25100); experiment: [3H]prazosin whole-cell competition binding, CHO-α1D cells; conditions: for Log KD α1D site 1: high-affinity component of two-component curve, used for selectivity; for Log KD α1D site 2: low-affinity component of two-component curve; for Selectivity ratio α1B vs α1D / Selectivity ratio α1A vs α1D: ratio of KD values, higher α1D affinity (site 1 KD); for pKd: Log KD α1D
T3 sequence (P25100 1-572): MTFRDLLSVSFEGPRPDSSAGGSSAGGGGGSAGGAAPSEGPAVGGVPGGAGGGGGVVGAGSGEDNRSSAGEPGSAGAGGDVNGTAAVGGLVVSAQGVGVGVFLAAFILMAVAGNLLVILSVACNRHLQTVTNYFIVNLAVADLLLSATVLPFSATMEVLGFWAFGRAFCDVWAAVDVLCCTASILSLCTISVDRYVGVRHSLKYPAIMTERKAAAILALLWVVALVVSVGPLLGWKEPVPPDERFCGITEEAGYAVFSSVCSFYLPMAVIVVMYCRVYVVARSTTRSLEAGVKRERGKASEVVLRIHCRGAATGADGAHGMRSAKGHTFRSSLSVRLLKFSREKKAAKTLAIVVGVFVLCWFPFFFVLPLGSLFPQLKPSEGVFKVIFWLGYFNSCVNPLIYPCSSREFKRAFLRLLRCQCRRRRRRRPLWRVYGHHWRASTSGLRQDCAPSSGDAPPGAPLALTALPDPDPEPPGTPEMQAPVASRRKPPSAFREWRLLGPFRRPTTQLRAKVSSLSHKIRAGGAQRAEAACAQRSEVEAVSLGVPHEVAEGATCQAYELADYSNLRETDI

[2] = low-affinity component of two-component curve, control
[3] = share of site 1 in the two-component inhibition curve
[4] = two-component inhibition curve, proportion of site 1
[5] = single-component inhibition curve, given as log KD (negative), mean ± SE mean
[6] = log KD from 3H-prazosin whole cell binding, CHO cells, mean ± s.e.mean
[7] = ratio, 1 = no selectivity for a subtype over another

- Selectivity ratio α1B vs α1D (human α1B-adrenoceptor): 1.3 fold
- Kd (human α1B-adrenoceptor): 2690 nM
- Selectivity ratio α1A vs α1D (human α1A-adrenoceptor): 16 fold
- Selectivity ratio α1A vs α1B (human α1A-adrenoceptor): 13 fold
- Kd (human α1A-adrenoceptor; [5]): 214 nM
- pKd [1, 5]: 5.46
SMILES: CNCCCC1c2ccccc2C=Cc2ccccc21 [Protriptyline]

- Log IC50 α1B (human α1B-adrenoceptor; log IC50 bound): Log IC50>-4
- selectivity α1B vs α1D (human α1B-adrenoceptor): >12
- Log KD α1A (human α1A-adrenoceptor; [6]): -5.24 ± 0.07
- selectivity α1A vs 1D (human α1A-adrenoceptor; [7]): 1.4
- selectivity α1A vs α1B (human α1A-adrenoceptor; [7]): >17
- Log KD α1D [1, 6]: -5.09 ± 0.18
SMILES: CC(C)OC(=O)c1cc2c(OCC(O)CNC(C)(C)C)cccc2[nH]1 (stereo not drawn) [SDZ 21009]

- selectivities α1B vs α1D (human α1B-adrenoceptor; selectivity ratio, 1 = no selectivity for a given receptor subtype over another): >12
- Log IC50 α1B (human α1B-adrenoceptor; top concentration inhibited some but 50% or less of specific binding, printed as log IC50): Log IC50 > −4
- Selectivity ratio α1A vs α1D (human α1A-adrenoceptor): 1.4 fold
- Selectivity ratio α1A vs α1B (human α1A-adrenoceptor): >17 fold
- Log KD α1A (human α1A-adrenoceptor; [5]): −5.24 ± 0.07
- Selectivity ratio α1B vs α1D [1]: >12 fold
- Log KD α1D [1, 5]: −5.09 ± 0.18
SMILES: CC(C)OC(=O)c1cc2c(OCC(O)CNC(C)(C)C)cccc2[nH]1 (stereo not drawn) [SDZ21009]

- Selectivity ratio α1B vs α1D (human α1B-adrenoceptor): 1.4 fold
- Log KD α1B (human α1B-adrenoceptor): −5.46 ± 0.06
- Selectivity ratio α1A vs α1D (human α1A-adrenoceptor): 16 fold
- Selectivity ratio α1A vs α1B (human α1A-adrenoceptor): 11 fold
- Log KD α1A (human α1A-adrenoceptor; [5]): −6.51 ± 0.09
- Log KD α1D [1, 5]: −5.31 ± 0.13
SMILES: COC1(C2=NCCN2)COc2ccccc2O1 (stereo not drawn) [RX821002]

Second part, the molecule before the results:

SMILES: ClCCN(Cc1ccccc1)Cc1ccccc1 [Dibenamine]
- Log KD α1B site 1 (human α1B-adrenoceptor; high-affinity component of two-component curve, control): −6.57 ± 0.07
- Log KD α1B site 2 (human α1B-adrenoceptor; [2]): −4.66 ± 0.06
- selectivity α1B vs α1D (human α1B-adrenoceptor): 6.3
- % site 1, α1B (human α1B-adrenoceptor; [3]): -6.57 ± 0.07 -4.66 ± 0.06 67.6 ± 2.6% site 1
- % site 1, α1B (human α1B-adrenoceptor; [4]): -6.57 ± 0.07 -4.66 ± 0.06 67.6 ± 2.6% site 1
- Log KD α1A site 1 (human α1A-adrenoceptor; high-affinity component of two-component curve, control (no thiosulphate)): −7.91 ± 0.06
- Log KD α1A site 2 (human α1A-adrenoceptor; [2]): −5.32 ± 0.08
- Selectivity ratio α1A vs α1D (human α1A-adrenoceptor): 3.5 fold
- Selectivity ratio α1A vs α1B (human α1A-adrenoceptor): 22 fold
- % site 1, α1A (human α1A-adrenoceptor; [3]): -7.91 ± 0.06 -5.32 ± 0.08 83.0 ± 1.8% site 1
- % site 1, α1A (human α1A-adrenoceptor; [4]): -7.91 ± 0.06 -5.32 ± 0.08 83.0 ± 1.8% site 1
- Log KD α1D site 1 ([1]; control): −7.37 ± 0.15
- Log KD α1D site 2 ([1]; control): −5.00 ± 0.14
- Selectivity ratio α1B vs α1D [1]: 6.3 fold
- % site 1 α1D [1, 4]: -7.37 ± 0.15 -5.00 ± 0.14 47.8 ± 3.2% site 1

SMILES: OCCN1CCN(CCC=C2c3ccccc3Sc3ccc(C(F)(F)F)cc32)CC1 [Flupenthixol]
- Selectivity ratio α1B vs α1D (human α1B-adrenoceptor): 3.2 fold
- Kd (human α1B-adrenoceptor): 33.9 nM
- Selectivity ratio α1A vs α1D (human α1A-adrenoceptor): 25 fold
- Selectivity ratio α1A vs α1B (human α1A-adrenoceptor): 7.6 fold
- Kd (human α1A-adrenoceptor; [5]): 4.47 nM
- pKd [1, 5]: 6.96

SMILES: CCN1CCCC1CNC(=O)c1cc(S(=O)(=O)CC)c(N)cc1OC (stereo not drawn) [Amisulpiride]
- Log KD α1B: result in words (human α1B-adrenoceptor; no inhibition of [3H]prazosin binding at maximum concentration possible): No binding to 100 µmol/L
- binding at α1B (human α1B-adrenoceptor; result in words in the Log KD α1B column): No binding to 100µM
- binding at α1B (result in words) (human α1B-adrenoceptor; up to the maximum concentration): No binding to 100µM
- Log KD α1A (human α1A-adrenoceptor; [5]): −5.05 ± 0.04
- Log KD α1D (apparent) ([1]; app: top concentration inhibited most but not all specific binding, curve extrapolated): −4.55 ± 0.08^app

SMILES: CCn1ccnc1CC1COc2ccccc2O1 (stereo not drawn) [Imiloxan]
- selectivity α1B vs α1D (human α1B-adrenoceptor): >10
- Selectivity ratio α1A vs α1B (human α1A-adrenoceptor): >4.0 fold
- selectivity α1A vs 1D (human α1A-adrenoceptor; [7]): 2.6
- Kd (human α1A-adrenoceptor; [5]): 25100 nM
- pKd [1, 5]: 5.02
- Selectivity ratio α1A vs α1D [1]: 2.6 fold
- Selectivity ratio α1B vs α1D [1]: >10 fold

SMILES: CN1CC[C@]2(CCN3CCc4c(oc5ccccc45)[C@@H]3C2)N(C)C1=O.Cl [MK‐912]
- Log KD α1B (human α1B-adrenoceptor): −5.46 ± 0.05
- Selectivity ratio α1A vs α1B (human α1A-adrenoceptor): 20 fold
- Log KD α1A (human α1A-adrenoceptor; [5]): −6.76 ± 0.03
- Log KD α1D site 1 ([1]; control): −7.30 ± 0.16
- Log KD α1D site 2 ([1]; control): −5.50 ± 0.25
- % site 1 α1D ([1]; percentage of inhibition through first component, control): 61.2 ± 5.5% site 1
- Selectivity ratio α1A vs α1D [1]: 3.5 fold
- Selectivity ratio α1B vs α1D [1]: 69 fold
